Test results published in patent US20050209278A1, “Piperidinyl- and piperazinyl-sulfonylmethyl hydroxamic acids and their use as protease inhibitors” (priority 2002, published 2005).
Where two headings read alike, the source gives them in different places.

Columns and labels:
[1] = molecular target: T1, MMP-9 (Homo sapiens, UniProt P14780); test: In vitro MMP inhibition, Ki determination (fluorogenic substrate II); assay type: biochemical
T1 construct: made in house; host or cells: MMP-9-transfected HT1080 cells (spent media)
T1 sequence (P14780 107-707 limits assumed): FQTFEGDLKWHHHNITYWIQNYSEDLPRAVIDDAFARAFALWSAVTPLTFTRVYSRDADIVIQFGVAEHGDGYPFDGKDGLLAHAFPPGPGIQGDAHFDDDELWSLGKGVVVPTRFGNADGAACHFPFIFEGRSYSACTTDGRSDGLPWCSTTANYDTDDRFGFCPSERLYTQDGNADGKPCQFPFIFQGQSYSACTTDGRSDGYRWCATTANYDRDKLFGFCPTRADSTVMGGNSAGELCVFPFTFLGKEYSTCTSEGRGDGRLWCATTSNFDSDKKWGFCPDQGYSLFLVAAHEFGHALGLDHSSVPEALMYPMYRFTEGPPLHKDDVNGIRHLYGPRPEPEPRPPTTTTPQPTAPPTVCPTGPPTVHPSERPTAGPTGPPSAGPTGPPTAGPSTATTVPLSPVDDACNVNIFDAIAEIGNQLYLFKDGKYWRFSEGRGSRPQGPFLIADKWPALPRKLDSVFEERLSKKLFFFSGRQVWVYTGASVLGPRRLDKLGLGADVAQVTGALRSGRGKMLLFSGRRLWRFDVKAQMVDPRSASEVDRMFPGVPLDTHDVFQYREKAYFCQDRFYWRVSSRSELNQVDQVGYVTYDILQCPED
How it was run: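 HT1080-derived MMP-9, activated with APMA, trypsin or MMP-3, incubated 1 hr at room temperature with inhibitor and 4 μM fluorogenic substrate II (at or below Km) in pH 7.5 Tris/NaCl/CaCl2 buffer; ex 330/em 420 nm. Ki from Morrison-equation regression, without substrate correction.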

[2] = molecular target: T2, MMP-1 (Homo sapiens, UniProt P03956); test: as above; assay type: biochemical; conditions: read-out: MMP-1 Ki
T2 construct: made in house; host or cells: MMP-1-transfected HT-1080 cells (spent media)
T2 sequence (P03956 100-469): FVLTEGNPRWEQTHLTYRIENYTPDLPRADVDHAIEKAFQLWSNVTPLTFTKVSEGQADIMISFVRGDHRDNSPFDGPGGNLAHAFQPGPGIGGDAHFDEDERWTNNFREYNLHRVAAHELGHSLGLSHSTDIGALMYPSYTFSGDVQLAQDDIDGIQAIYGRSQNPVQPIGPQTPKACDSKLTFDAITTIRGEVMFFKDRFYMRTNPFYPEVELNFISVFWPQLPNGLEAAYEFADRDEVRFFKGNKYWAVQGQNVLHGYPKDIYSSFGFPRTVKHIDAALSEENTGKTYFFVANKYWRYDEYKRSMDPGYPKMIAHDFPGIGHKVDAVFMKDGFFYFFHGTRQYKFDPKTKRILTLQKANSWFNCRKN

Compound	Ki ([1]; value not in parenthesis) [µM]	Ki ([2]; value not in parenthesis) [µM]	Ki ([1]; value outside parentheses) [µM]	Ki ([2]; value outside parentheses) [µM]
CCCCOc1ccc(N2CCN(S(=O)(=O)C3(C(=O)NO)Cc4ccccc4C3)CC2)nc1 [Example 85]	0.00117	4.77	–	–
CCCCOc1ccc(N2CCN(S(=O)(=O)C3(C(=O)NO)CCOCC3)CC2)c(F)c1 [Example 90]	0.00215	> 10	–	–
CCCCOc1ccc(N2CCN(S(=O)(=O)C3(C(=O)NO)CCN(C(C)(C)C)CC3)CC2)c(F)c1 [Example 84]	0.0179	> 10	–	–
CCCCOc1ccc(N2CCN(S(=O)(=O)C3(C(=O)NO)CCN(c4ccccc4)CC3)CC2)cc1 [Example 264]	–	–	0.0204	> 10
CCc1ccc(N2CCN(S(=O)(=O)C3(C(=O)NO)CCCC3)CC2)nc1 [Example 261]	–	–	0.00153	0.632
O=C(NO)C1(S(=O)(=O)N2CCN(c3ccc(OCCCCF)cc3)CC2)CCOCC1 [Example 89]	0.00223	> 10	–	–
COCCN1CCC(C(=O)NO)(S(=O)(=O)N2CCN(c3ccc(OCCCCF)cc3)CC2)CC1 [Example 88]	0.00218	> 10	–	–
O=C(NO)C1(S(=O)(=O)N2CCN(c3ccc(OCc4ccccc4)cn3)CC2)CCOCC1 [Example 74]	0.0048	3.21	–	–
C#CCOC(=O)N1CCC(C(=O)NO)(S(=O)(=O)N2CCN(c3ccc(OCCCC)cc3)CC2)CC1 [Example 98]	0.00124	> 10	–	–
O=C(NO)C1(S(=O)(=O)N2CCN(c3ccc(CCC(F)(F)F)cc3)CC2)CCOCC1 [Example 77]	0.0008	> 10	–	–
CCCCOc1ccc(N2CCN(S(=O)(=O)C3(C(=O)NO)CCN(C(=O)COC)CC3)CC2)cc1 [Example 268]	–	–	0.00108	9.32
CCCCOc1ccc(N2CCN(S(=O)(=O)C3(C(=O)NO)CCN(c4ccc(C(F)(F)F)cn4)CC3)CC2)cc1 [Example 257]	–	–	0.037	> 10

Further lines, results first:

Ki ([1]; value not in parenthesis) [µM]	Ki ([2]; value not in parenthesis) [µM]	Ki ([1]; value outside parentheses) [µM]	Ki ([2]; value outside parentheses) [µM]	Compound
–	–	0.000542	> 10	CCCCCc1ccc(N2CCN(S(=O)(=O)C3(C(=O)NO)CCN(C4CC4)CC3)CC2)cc1 [Example 272]
–	–	0.00221	> 10	CCCCOc1ccc(N2CCN(S(=O)(=O)C3(C(=O)NO)CCN(Cc4cccnc4)CC3)CC2)cc1F [Example 293]
–	–	0.142	> 10	CS(=O)(=O)c1ccc(N2CCN(S(=O)(=O)C3(C(=O)NO)CCOCC3)CC2)cc1 [Example 300]
–	–	0.0113	6.78	O=C(NO)C1(S(=O)(=O)N2CCC(c3ccc(-c4ccc(F)cc4F)cn3)CC2)CCOCC1 [Example 308]
–	–	0.000346	> 10	COCCN1CCC(C(=O)NO)(S(=O)(=O)N2CCC(c3ccc(CCCC(F)(F)F)cc3)CC2)CC1 [Example 310]
–	–	0.00121	> 10	CCCCOc1ccc(N2CCN(S(=O)(=O)C3(C(=O)NO)CCN(C(=O)C(C)C)CC3)CC2)cc1 [Example 273]
–	–	0.0357	> 10	COCCN1CCC(C(=O)NO)(S(=O)(=O)N2CCC(c3ncc(CC(C)C)s3)CC2)CC1 [Example 311]
–	–	0.000102	> 10	COCCN1CCC(C(=O)NO)(S(=O)(=O)N2CCC(c3ccc(CCC(F)(F)F)cc3)CC2)CC1 [Example 309]
–	–	0.00307	> 10	CC(C)CCOc1ccc(N2CCN(S(=O)(=O)C3(C(=O)NO)CCOCC3)CC2)cc1 [Example 279]
–	–	0.00069	9.79	CCCCOc1ccc(N2CCN(S(=O)(=O)C3(C(=O)NO)CCN(c4ccc(O)nn4)CC3)CC2)cc1 [Example 283]
